Data from patent US20170290774A1, “NEUROKININ-1 RECEPTOR ANTAGONIST COMPOSITION FOR TREATMENT OF DISEASES AND CONDITIONS OF THE RESPIRATORY TRACT” (PLUS VITECH, S.L., priority 2014, published 2017).

Key:
[1] = system: TGFβ1; test: Immunohistochemistry of TGFβ1 in respiratory tract tissue of sodium hypochlorite aerosol-treated rabbits; type: in vivo, New Zealand albino rabbits
Excerpt: (§1) It is known that the factors TGF-α, TGF-β 1, TGF-β 2, TGF-β 3, SPARC, MMP-3; MMP-7, MMP-9, MMP-11, MMP-13 and MMP-14, TGF-β, NF-kB, EGF, MMP-9, VEGF and TNF-α which are produced by lung cells (pneumocytes, fibroblasts and vascular endothelial cells) and inflammatory cells (macrophages, lymphocytes and polymorphonuclear leukocytes) are involved in the pathophysiology and development of said respiratory tract diseases. […] Herein, 27 New Zealand albino rabbits (New Zealand White Rabbit) with an initial average weight about 3 kg were used in this example. All subjects were administered an aerosol of a solution consisting of a mixture of water and sodium hypochlorite (35 g sodium hypochlorite per liter of water) at a rate of 5 mL of said solution by inhalation three times a day for 7 days (days 1 to 7 of experimentation). Subsequently, from days 3 to 7, a group of 3 rabbits (Group 1) was administered an oral dose of 10 mg/kg body weight per day, another group of 3 rabbits (Group 2) was administered an oral dose of 40 mg/kg body weight per day, a third group (Group 3) was administered an oral dose of 80 mg/kg body weight per day and a fourth group (Group 4) was administered an oral dose of 100 mg/kg body weight per day. […] This mixture was administered as an aerosol by inhalation, also from days 3 to 7, to a group of 3 rabbits (group 5) at a dose of 0.05 mg/kg body weight per day, to another group of three rabbits (Group 6) at a dose of 0.1 mg/kg body weight per day, to another group of three rabbits (Group 7) at a dose of 0.2 mg/kg body weight per day and to another group of three rabbits (Group 8) at a dose of 0.4 mg/kg body weight per day. A placebo consisting only of olive oil was administered from days 3 to 7 to a control group of 3 rabbits (placebo group). In parallel, 3 rabbits were kept under identical conditions but were not administered any treatment nor the aforementioned sodium hypochlorite solution (control group). […] On day 7 of the experiment all animals were euthanized and necropsied. […] Samples were taken at the peripheral level of the lung parenchyma, just below the pleural surface. Tissue samples were also taken from the nasal cavity, pharynx, larynx and bronchi. Immunohistochemistry studies were performed for all samples to evaluate the levels of the markers TGF-α, TGF-β 1, TGF-β 2, TGF-β 3 SPARC, MMP-3; MMP-7, MMP-9, MMP-11, MMP-14, TGF-β, TNF-α and VEGF. In said immunohistochemistry studies, a sample of each sample was dehydrated by treatment with increasing concentrations of ethanol and finally xylene. Subsequently said dried samples were embedded in paraffin, thus creating a block. Said paraffin blocks were cut on a microtome to a thickness of 5 μm, and the resulting sections (slices) were placed on slides suitable for conducting immunohistochemistry techniques. Subsequently, the sections were deparaffinised by immersion in xylene and then rehydrated through immersion in a series of solutions containing decreasing concentrations of ethanol and, finally, water. […] The samples were then allowed to cool to room temperature over 10 minutes. Endogenous peroxidase activity was blocked by treatment with 3% hydrogen peroxide over 30 min at room temperature. […] In order to verify the expression of NK1 receptors, the cell samples were incubated in the presence of anti-NK1 antibodies ([…], Sigma-Aldrich) diluted 1:1000 at 4° C. overnight. After this time they were washed in 0.05M Tris buffer at room temperature. Subsequently, Envision System-HRP (Dako) reagents were added for 30 min at room temperature. Once this time had expired, the samples were again washed with 0.05 M Tris buffer, and immunoreactivity was visualized by light microscopy with a chromogenic solution with 3,3'-diaminobenzidine (DAB+; Dako, USA). In order to differentiate the cell nuclei, these were lightly stained with haematoxylin. Samples that were not incubated with the primary antibody, but wherein this was replaced by a non-immune serum were used as negative controls. […]

[2] = system: TGFα; test: Immunohistochemistry of TGFα in respiratory tract tissue of sodium hypochlorite aerosol-treated rabbits; type: in vivo, New Zealand albino rabbits
Excerpt: as §1

[3] = bronchial tissue, Group 1, oral 10 mg/kg per day
[4] = bronchial tissue, Group 2, oral 40 mg/kg per day
[5] = bronchial tissue, Group 3, oral 80 mg/kg per day
[6] = bronchial tissue, Group 4, oral 100 mg/kg per day
[7] = laryngeal tissue, Group 1, oral 10 mg/kg per day
[8] = laryngeal tissue, Group 2, oral 40 mg/kg per day
[9] = laryngeal tissue, Group 3, oral 80 mg/kg per day
[10] = laryngeal tissue, Group 4, oral 100 mg/kg per day
[11] = laryngeal tissue, Group 5, inhalation 0.05 mg/kg per day
[12] = laryngeal tissue, Group 6, inhalation 0.1 mg/kg per day
[13] = laryngeal tissue, Group 7, inhalation 0.2 mg/kg per day
[14] = laryngeal tissue, Group 8, inhalation 0.4 mg/kg per day
[15] = lung tissue, Group 1, oral 10 mg/kg per day
[16] = lung tissue, Group 2, oral 40 mg/kg per day
[17] = lung tissue, Group 3, oral 80 mg/kg per day
[18] = lung tissue, Group 4, oral 100 mg/kg per day
[19] = lung tissue, Group 6, inhalation 0.1 mg/kg per day
[20] = lung tissue, Group 7, inhalation 0.2 mg/kg per day
[21] = lung tissue, Group 8, inhalation 0.4 mg/kg per day
[22] = nasal cavity tissue, Group 1, oral 10 mg/kg per day
[23] = nasal cavity tissue, Group 2, oral 40 mg/kg per day
[24] = nasal cavity tissue, Group 3, oral 80 mg/kg per day
[25] = nasal cavity tissue, Group 4, oral 100 mg/kg per day
[26] = nasal cavity tissue, Group 5, inhalation 0.05 mg/kg per day
[27] = nasal cavity tissue, Group 6, inhalation 0.1 mg/kg per day
[28] = nasal cavity tissue, Group 7, inhalation 0.2 mg/kg per day
[29] = nasal cavity tissue, Group 8, inhalation 0.4 mg/kg per day
[30] = pharyngeal tissue, Group 1, oral 10 mg/kg per day
[31] = pharyngeal tissue, Group 2, oral 40 mg/kg per day
[32] = pharyngeal tissue, Group 3, oral 80 mg/kg per day
[33] = pharyngeal tissue, Group 4, oral 100 mg/kg per day
[34] = pharyngeal tissue, Group 5, inhalation 0.05 mg/kg per day
[35] = pharyngeal tissue, Group 6, inhalation 0.1 mg/kg per day
[36] = pharyngeal tissue, Group 7, inhalation 0.2 mg/kg per day
[37] = pharyngeal tissue, Group 8, inhalation 0.4 mg/kg per day

SMILES: C[C@@H](OC1OCCN(Cc2nc(=O)[nH][nH]2)C1c1ccc(F)cc1)c1cc(C(F)(F)F)cc(C(F)(F)F)c1 (stereo in doubt) [Aprepitant, 5-([(2R,3S)-2-((R)-1-[3,5-bis(trifluoromethyl)phenyl]ethoxy)-3-(4-fluorophenyl)morpholino]methyl)-1H-1,2,4-triazol-3(2H)-one]
- Percent increase in TGFβ1 with respect to the control group [1, 3]: 1,234.56%
- Percent increase in TGFβ1 with respect to the control group [1, 4]: 984.45%
- Percent increase in TGFβ1 with respect to the control group [1, 5]: 768.32%
- Percent increase in TGFβ1 with respect to the control group [1, 6]: 502.23%
- % Med G5/C: percent increase in marker TGFβ1 with respect to the control group ([1]; bronchial tissue, Group 5): 1,103.34%
- % Med G6/C: percent increase in marker TGFβ1 with respect to the control group ([1]; bronchial tissue, Group 6): 708.45%
- % Med G7/C: percent increase in marker TGFβ1 with respect to the control group ([1]; bronchial tissue, Group 7): 302.34%
- % Med G8/C: percent increase in marker TGFβ1 with respect to the control group ([1]; bronchial tissue, Group 8): 124.37%
- Percent increase in TGFβ1 with respect to the control group [1, 7]: 1,567.67%
- Percent increase in TGFβ1 with respect to the control group [1, 8]: 1,278.89%
- Percent increase in TGFβ1 with respect to the control group [1, 9]: 1,067.78%
- Percent increase in TGFβ1 with respect to the control group [1, 10]: 988.78%
- Percent increase in TGFβ1 with respect to the control group [1, 11]: 1,398.78%
- Percent increase in TGFβ1 with respect to the control group [1, 12]: 760.87%
- Percent increase in TGFβ1 with respect to the control group [1, 13]: 320.34%
- Percent increase in TGFβ1 with respect to the control group [1, 14]: 102.23%
- Percent increase in TGFβ1 with respect to the control group [1, 15]: 1,277.48%
- Percent increase in TGFβ1 with respect to the control group [1, 16]: 990.28%
- Percent increase in TGFβ1 with respect to the control group [1, 17]: 858.27%
- Percent increase in TGFβ1 with respect to the control group [1, 18]: 759.25%
- Percent increase in TGFβ1 with respect to the control group ([1]; lung tissue, Group 5, inhalation 0.05 mg/kg per day): 1,166.88%
- Percent increase in TGFβ1 with respect to the control group [1, 19]: 492.89%
- Percent increase in TGFβ1 with respect to the control group [1, 20]: 270.24%
- Percent increase in TGFβ1 with respect to the control group [1, 21]: 123.01%
- Percent increase in TGFβ1 with respect to the control group [1, 22]: 2,191.33%
- Percent increase in TGFβ1 with respect to the control group [1, 23]: 1,562.26%
- Percent increase in TGFβ1 with respect to the control group [1, 24]: 1,491.16%
- Percent increase in TGFβ1 with respect to the control group [1, 25]: 1,373.96%
- Percent increase in TGFβ1 with respect to the control group [1, 26]: 2,065.52%
- Percent increase in TGFβ1 with respect to the control group [1, 27]: 745.49%
- Percent increase in TGFβ1 with respect to the control group [1, 28]: 480.80%
- Percent increase in TGFβ1 with respect to the control group [1, 29]: 138.39%
- Percent increase in TGFβ1 with respect to the control group [1, 30]: 2,198.45%
- Percent increase in TGFβ1 with respect to the control group [1, 31]: 1,562.45%
- Percent increase in TGFβ1 with respect to the control group [1, 32]: 1,208.45%
- Percent increase in TGFβ1 with respect to the control group [1, 33]: 1,001.31%
- Percent increase in TGFβ1 with respect to the control group [1, 34]: 1,804.23%
- Percent increase in TGFβ1 with respect to the control group [1, 35]: 1,220.34%
- Percent increase in TGFβ1 with respect to the control group [1, 36]: 609.67%
- Percent increase in TGFβ1 with respect to the control group [1, 37]: 121.89%
- Percent increase in TGFα with respect to the control group [2, 3]: 1,980.45%
- Percent increase in TGFα with respect to the control group [2, 4]: 1,540.45%
- Percent increase in TGFα with respect to the control group [2, 5]: 1,190.45%
- Percent increase in TGFα with respect to the control group [2, 6]: 873.34%
- % Med G5/C: percent increase in marker TGFα with respect to the control group ([2]; bronchial tissue, Group 5): 1,875.75%
- % Med G6/C: percent increase in marker TGFα with respect to the control group ([2]; bronchial tissue, Group 6): 1,267.45%
- % Med G7/C: percent increase in marker TGFα with respect to the control group ([2]; bronchial tissue, Group 7): 689.78%
- % Med G8/C: percent increase in marker TGFα with respect to the control group ([2]; bronchial tissue, Group 8): 209.45%
- Percent increase in TGFα with respect to the control group [2, 7]: 1,875.56%
- Percent increase in TGFα with respect to the control group [2, 8]: 1,500.45%
- Percent increase in TGFα with respect to the control group [2, 9]: 1,320.32%
- Percent increase in TGFα with respect to the control group [2, 10]: 1,101.28%
- Percent increase in TGFα with respect to the control group [2, 11]: 1,820.45%
- Percent increase in TGFα with respect to the control group [2, 12]: 1,250.74%
- Percent increase in TGFα with respect to the control group [2, 13]: 783.78%
- Percent increase in TGFα with respect to the control group [2, 14]: 234.67%
- Percent increase in TGFα with respect to the control group [2, 15]: 1,717.76%
- Percent increase in TGFα with respect to the control group [2, 16]: 1,308.73%
- Percent increase in TGFα with respect to the control group [2, 17]: 1,257.29%
- Percent increase in TGFα with respect to the control group [2, 18]: 1,195.15%
- Percent increase in TGFα with respect to the control group [2, 19]: 937.00%
- Percent increase in TGFα with respect to the control group [2, 20]: 402.39%
- Percent increase in TGFα with respect to the control group [2, 21]: 147.11%
- Percent increase in TGFα with respect to the control group [2, 22]: 2,824.89%
- Percent increase in TGFα with respect to the control group [2, 23]: 1,907.98%
- Percent increase in TGFα with respect to the control group [2, 24]: 1,347.22%
- Percent increase in TGFα with respect to the control group [2, 25]: 952.16%
- Percent increase in TGFα with respect to the control group [2, 26]: 2,908.21%
- Percent increase in TGFα with respect to the control group [2, 27]: 764.46%
- Percent increase in TGFα with respect to the control group [2, 28]: 495.68%
- Percent increase in TGFα with respect to the control group [2, 29]: 156.67%
- Percent increase in TGFα with respect to the control group [2, 30]: 2,274.76%
- Percent increase in TGFα with respect to the control group [2, 31]: 1,907.77%
- Percent increase in TGFα with respect to the control group [2, 32]: 1,780.45%
- Percent increase in TGFα with respect to the control group [2, 33]: 1,550.34%
- Percent increase in TGFα with respect to the control group [2, 34]: 1,946.43%
- Percent increase in TGFα with respect to the control group [2, 35]: 1,364.46%
- Percent increase in TGFα with respect to the control group [2, 36]: 699.78%
- Percent increase in TGFα with respect to the control group [2, 37]: 101.34%
